From patent publication US6864245B2, “Biocompatible poly-β-1→4-N-acetylglucosamine” (priority 1993, dated 2005)
“And” between values parts separate entries of the source, which are not always exact repeats. Equal entries are not always repeated. Where two headings read alike, the source gives them in different places.

Test system: HT29 colon tumors
Settings: Intravenous Injection, daily

Structure (SMILES): O=c1[nH]cc(F)c(=O)[nH]1 [5′-FU, 5′-fluorouracil]
- % Change (High Dose): −67.0%
- Comments (death) (High Dose): Died day 13
- Tumor Volume Post-treatment (High Dose): 132 mm^3
- Tumor Volume Pre-Treatment (High Dose): 402 mm^3
- Comments (death) (Low Dose): Died day 13
- Tumor Volume Post-treatment (Low Dose): 703 mm^3 and 402 mm^3
- Tumor Volume Pre-Treatment (Low Dose): 402 mm^3
